According to ChEMBL document CHEMBL1177826, “Synthesis of isosteric selenium analog of the PPARbeta/delta agonist GW501516 and comparison of biological activity” (Bioorg Med Chem Lett, 2010):
Activity calls are given as the source filed them. The calls are words filed in the database; no cut-off is given here.

Experiments:
[1] = molecular target: T1, PPAR delta/gamma (Homo sapiens) (UniProt P37231+Q03181); test: Activation of […] in human HaCaT cells assessed as induction of ANGPTL4 expression by PCR; type: cell-based
T1 sequence (P37231 whole entry, looked up): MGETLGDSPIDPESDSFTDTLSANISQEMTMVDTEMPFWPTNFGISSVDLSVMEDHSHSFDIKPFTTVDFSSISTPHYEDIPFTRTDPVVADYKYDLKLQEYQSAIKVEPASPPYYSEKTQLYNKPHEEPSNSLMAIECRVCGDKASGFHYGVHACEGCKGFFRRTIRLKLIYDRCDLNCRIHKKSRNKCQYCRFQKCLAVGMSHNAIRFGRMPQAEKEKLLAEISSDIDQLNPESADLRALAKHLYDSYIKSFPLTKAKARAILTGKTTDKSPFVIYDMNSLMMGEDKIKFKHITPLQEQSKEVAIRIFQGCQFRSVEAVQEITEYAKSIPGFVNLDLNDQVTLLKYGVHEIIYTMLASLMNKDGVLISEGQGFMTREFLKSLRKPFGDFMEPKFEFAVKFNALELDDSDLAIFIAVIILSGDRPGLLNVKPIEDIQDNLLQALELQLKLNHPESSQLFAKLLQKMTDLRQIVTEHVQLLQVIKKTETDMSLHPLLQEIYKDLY
T1 sequence (Q03181 whole entry, looked up): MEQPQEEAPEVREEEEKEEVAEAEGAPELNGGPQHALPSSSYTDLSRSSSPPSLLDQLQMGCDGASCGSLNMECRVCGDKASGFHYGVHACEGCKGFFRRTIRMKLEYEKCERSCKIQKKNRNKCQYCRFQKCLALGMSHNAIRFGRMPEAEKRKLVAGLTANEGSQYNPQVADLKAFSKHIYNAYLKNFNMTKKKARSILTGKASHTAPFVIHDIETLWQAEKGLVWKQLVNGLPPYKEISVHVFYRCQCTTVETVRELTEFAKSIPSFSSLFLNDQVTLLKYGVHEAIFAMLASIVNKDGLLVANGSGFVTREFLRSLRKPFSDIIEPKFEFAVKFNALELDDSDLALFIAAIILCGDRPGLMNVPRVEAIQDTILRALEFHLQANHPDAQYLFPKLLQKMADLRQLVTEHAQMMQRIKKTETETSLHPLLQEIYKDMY

[2] = molecular target: T1, PPAR delta/gamma (Homo sapiens); test: Activation of […] in human HaCaT cells assessed as inhibition of cellular proliferation at 10 uM after 72 hrs; type: cell-based

Compound: Cc1cc([Se]Cc2sc(-c3ccc(C(F)(F)F)cc3)nc2C)ccc1OCC(=O)O
- Activity [1]: Active
- Activity [2]: Active
